The results in this text go back to ChEMBL document CHEMBL1201862, “PubChem BioAssay data set” (2004).

SMILES strings stand for the structures.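 Values below derive from 48-hour exposures of cells grown in 96-well plates, with endpoints linearly interpolated between the two concentrations bracketing the appropriate inhibition level. GI50 is the concentration that inhibits growth by half.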 Calls of active or inactive are those of the source. Rule as the data show it: active = GI50 up to about 1.1 µM and inactive = higher. Some results are limits rather than exact numbers.

Test systems include HOP-92; HCT-15; HCT-116; EKVX; TK-10; MOLT-4; 786-0; SK-MEL-28; A498; OVCAR-3; NCI-H460; MDA-MB-231; SK-OV-3; NCI-H226; A549; UO-31; NCI-H23; RXF 393; OVCAR-8; HCC 2998.
Common to all, as to assay: NCI-60 cell line screen, 48 h

Turning to `CS(=O)(=O)NC12CCC(c3ccccc31)c1ccccc12`, the GI50 in the assay on HOP-92 is > 100 µM (inactive); with HCT-15 it was above 100 µM; with HCT-116, > 100 µM (inactive); in the assay on EKVX it was > 100 µM (inactive); with TK-10, > 100 µM (inactive); with MOLT-4 it was > 100 µM (inactive). The GI50 in the assay with 786-0, with SK-MEL-28, in the assay with A498, with OVCAR-3, in the assay on NCI-H460 and with MDA-MB-231 was > 100 µM (inactive) in each case. In addition, the GI50 with SK-OV-3, in the assay with NCI-H226, in the assay on A549, in the assay on UO-31 and in the assay on NCI-H23 was > 100 µM (inactive) each time.
For `Cc1nn(-c2ccccc2)c2c1C(c1cc3ccccc3nc1Cl)NC(=O)N2` (stereo not drawn), the GI50 with HOP-92 is 10.8 µM (inactive); in the assay on HCT-15, 19.8 µM; in the assay on HCT-116 it was 23.8 µM (inactive); in the assay with EKVX, 25.9 µM (inactive); in the assay on RXF 393 it was 18.5 µM (inactive); with TK-10, 28.2 µM (inactive). Besides, the GI50 is 2.64 µM (inactive) in the assay on MOLT-4; 19.3 µM (inactive) in the assay with OVCAR-8; 16.7 µM (inactive) in the assay with 786-0; 21.5 µM (inactive) in the assay with A498; 32.7 µM (inactive) with OVCAR-3; 30.8 µM (inactive) with NCI-H460. The GI50 in the assay with MDA-MB-231 is 20.6 µM (inactive); with SK-OV-3, 20.1 µM (inactive); in the assay with NCI-H226, 19.1 µM (inactive); in the assay with A549 it was 56.2 µM (inactive); with UO-31, 14.3 µM (inactive); with NCI-H23, 17.9 µM (inactive).
In the case of `CCOC(=O)c1nc2ccccc2nc1Oc1ccc(F)cc1`, the GI50 was 2.64 µM (inactive) with HOP-92; above 100 µM in the assay on HCT-15; > 100 µM (inactive) with HCT-116; > 100 µM (inactive) with EKVX; 46.8 µM (inactive) in the assay on RXF 393; > 100 µM (inactive) in the assay with TK-10. For the same molecule, the GI50 in the assay with OVCAR-8, with 786-0, with SK-MEL-28, in the assay with A498, in the assay on OVCAR-3 and in the assay on NCI-H460 was > 100 µM (inactive) in each case. In addition, the GI50 in the assay on MDA-MB-231, in the assay on SK-OV-3, in the assay with NCI-H226, in the assay on A549 and with UO-31 was > 100 µM (inactive) throughout.
Take `CCOC(=O)c1nnsc1NN=C(C)C`: the GI50 in the assay on HCT-15 is above 100 µM; in the assay with HCT-116, > 100 µM (inactive); in the assay with EKVX, > 100 µM (inactive); in the assay with RXF 393, > 100 µM (inactive); in the assay with TK-10 it was > 100 µM (inactive); in the assay on MOLT-4, > 100 µM (inactive). The GI50 in the assay with OVCAR-8, in the assay on 786-0, in the assay on SK-MEL-28, with A498, in the assay with OVCAR-3 and in the assay on NCI-H460 was > 100 µM (inactive) in each case. Also, the GI50 in the assay with MDA-MB-231, in the assay with SK-OV-3, in the assay with HCC 2998, in the assay with NCI-H226, in the assay with A549 and with UO-31 was > 100 µM (inactive) in each case. For the same molecule, in the assay on NCI-H23, the GI50 was > 100 µM (inactive).
Turning to `CC1(C)OC[C@@]2([C@@H]3CC[C@@H](C3)C2(C)C)N1O`, the GI50 is 27.4 µM (inactive) in the assay with HOP-92; above 100 µM in the assay with HCT-15; > 100 µM (inactive) in the assay on HCT-116; > 100 µM (inactive) with EKVX; > 100 µM (inactive) in the assay with RXF 393; > 100 µM (inactive) with TK-10. Also, the GI50 was > 100 µM (inactive) in the assay with MOLT-4; > 100 µM (inactive) in the assay on OVCAR-8; > 100 µM (inactive) in the assay on 786-0; 46.9 µM (inactive) in the assay on SK-MEL-28; > 100 µM (inactive) in the assay with A498; > 100 µM (inactive) with OVCAR-3. Also, the GI50 in the assay on NCI-H460, in the assay with MDA-MB-231, in the assay on SK-OV-3, in the assay with NCI-H226, in the assay with A549 and with NCI-H23 was > 100 µM (inactive) throughout.
For the molecule `c1csc(-c2ccc(-c3cccc4nsnc34)s2)c1`, the GI50 in the assay on HCT-15 was above 100 µM; with HCT-116, 94.8 µM (inactive); in the assay with EKVX, > 100 µM (inactive); in the assay on RXF 393, 94.4 µM (inactive); in the assay with TK-10, 70.5 µM (inactive); in the assay with MOLT-4, 18.7 µM (inactive). Also, the GI50 is > 100 µM (inactive) with OVCAR-8; 39.5 µM (inactive) with 786-0; > 100 µM (inactive) with SK-MEL-28; > 100 µM (inactive) in the assay with A498; > 100 µM (inactive) in the assay on OVCAR-3; > 100 µM (inactive) with NCI-H460. For the same molecule, the GI50 in the assay with MDA-MB-231 was > 100 µM (inactive); with SK-OV-3, > 100 µM (inactive); in the assay on HCC 2998, > 100 µM (inactive); in the assay on NCI-H226 it was > 100 µM (inactive); with A549, 62.1 µM (inactive); in the assay on UO-31, > 100 µM (inactive). In the assay on NCI-H23, the GI50 is > 100 µM (inactive).
Consider `CNc1ccc(OC)cc1S(=O)(=O)c1ccccc1[N+](=O)[O-]`, for which the GI50 in the assay with HCT-15 is above 100 µM; in the assay with HCT-116, > 100 µM (inactive); in the assay on EKVX, 47.1 µM (inactive); in the assay with RXF 393, > 100 µM (inactive); with TK-10 it was > 100 µM (inactive); with MOLT-4, 27 µM (inactive). Also, the GI50 with OVCAR-8 is > 100 µM (inactive); with 786-0, > 100 µM (inactive); in the assay with SK-MEL-28, > 100 µM (inactive); in the assay on A498 it was 47.4 µM (inactive); in the assay with OVCAR-3 it was > 100 µM (inactive); in the assay with NCI-H460, > 100 µM (inactive). Besides, the GI50 is > 100 µM (inactive) with MDA-MB-231; > 100 µM (inactive) in the assay with SK-OV-3; > 100 µM (inactive) with HCC 2998; > 100 µM (inactive) in the assay with NCI-H226; 98.2 µM (inactive) with A549; > 100 µM (inactive) in the assay with UO-31. The GI50 with NCI-H23 was > 100 µM (inactive).
On to `COc1cc2c(cc1OC)C1c3ccccc3CCCN1CC2` (stereo not drawn), for which the GI50 in the assay with HOP-92 is 33 µM (inactive); in the assay on HCT-15, above 100 µM; in the assay with HCT-116, 36.4 µM (inactive); in the assay on EKVX, > 100 µM (inactive); with TK-10 it was > 100 µM (inactive); in the assay on MOLT-4 it was > 100 µM (inactive). The GI50 was > 100 µM (inactive) in the assay on OVCAR-8; > 100 µM (inactive) in the assay with 786-0; > 100 µM (inactive) with SK-MEL-28; > 100 µM (inactive) in the assay with A498; > 100 µM (inactive) with OVCAR-3; > 10 µM (inactive) with NCI-H460. Also, the GI50 was > 100 µM (inactive) in the assay on MDA-MB-231; > 100 µM (inactive) in the assay with SK-OV-3; > 100 µM (inactive) in the assay with HCC 2998; > 100 µM (inactive) in the assay with NCI-H226; > 100 µM (inactive) in the assay with A549; 8.41 µM (inactive) in the assay with UO-31. In the assay with NCI-H23, the GI50 was > 100 µM (inactive).
For the molecule `CSc1c(C#N)c(S)n(-c2ccc(Cl)cc2)c(=O)c1C#N`, the GI50 with HCT-15 is 74.1 µM; in the assay on HCT-116 it was 45.4 µM (inactive); with EKVX, > 100 µM (inactive); with RXF 393, 93.3 µM (inactive); in the assay with TK-10, > 100 µM (inactive); in the assay with MOLT-4 it was 44.2 µM (inactive). Moreover, the GI50 in the assay on OVCAR-8 was 74.1 µM (inactive); with 786-0 it was > 100 µM (inactive); in the assay on SK-MEL-28, > 100 µM (inactive); in the assay with A498 it was > 100 µM (inactive); in the assay with OVCAR-3, > 100 µM (inactive); in the assay on NCI-H460, > 100 µM (inactive). Also, the GI50 in the assay with MDA-MB-231 is > 100 µM (inactive); in the assay on SK-OV-3 it was > 100 µM (inactive); in the assay on HCC 2998, > 100 µM (inactive); in the assay with NCI-H226 it was 48.9 µM (inactive); in the assay on A549, > 100 µM (inactive); in the assay on UO-31 it was 27.9 µM (inactive). Moreover, the GI50 in the assay on NCI-H23 was 39.6 µM (inactive).
Take `O=C(O)CCc1ccc2c(c1)C(=O)CC2`: the GI50 was above 100 µM with HCT-15; > 100 µM (inactive) in the assay on HCT-116; > 100 µM (inactive) in the assay on EKVX; > 100 µM (inactive) in the assay on RXF 393; > 100 µM (inactive) in the assay with TK-10; > 100 µM (inactive) in the assay on MOLT-4. In addition, the GI50 in the assay on OVCAR-8, with 786-0, with SK-MEL-28, in the assay on A498, with OVCAR-3 and with NCI-H460 was > 100 µM (inactive) throughout. Further, the GI50 with MDA-MB-231 is 80.5 µM (inactive); in the assay on SK-OV-3, > 100 µM (inactive); in the assay with HCC 2998, > 100 µM (inactive); in the assay with NCI-H226 it was > 100 µM (inactive); with A549, > 100 µM (inactive); in the assay with UO-31, > 100 µM (inactive). Besides, the GI50 in the assay on NCI-H23 is > 100 µM (inactive).
Consider `Cc1ccc(S(=O)(=O)OC2C3OC(C)(C)OC3OC2C(c2cc(O)c3c(c2O)C(=O)c2ccccc2C3=O)c2cc(O)c3c(c2O)C(=O)c2ccccc2C3=O)cc1` (stereo not drawn), for which the GI50 is > 10 µM (inactive) in the assay on HOP-92; above 10 µM in the assay with HCT-15; > 10 µM (inactive) in the assay on HCT-116; > 10 µM (inactive) with EKVX; > 10 µM (inactive) with TK-10; > 10 µM (inactive) with MOLT-4. Besides, the GI50 with OVCAR-8, in the assay with 786-0, in the assay on SK-MEL-28, with A498, in the assay on OVCAR-3 and in the assay on NCI-H460 was > 10 µM (inactive) throughout. The GI50 with MDA-MB-231, in the assay on SK-OV-3, in the assay on HCC 2998, with NCI-H226, in the assay on A549 and in the assay on UO-31 was > 10 µM (inactive) in each case. The GI50 with NCI-H23 was > 10 µM (inactive).
